Measurements: patent US12234236B1, “GLP-1R agonist and therapeutic method thereof” (Ascletis Pharma (China) Co., Limited, priority 2023, dated 2025)

Key:
[1] = biological target: T1, hGLP-1R (Homo sapiens, UniProt P43220); experiment: hGLP-1R agonist cAMP stimulation assay; format: cell-based; conditions: Flp-In-293-GLP1R cells, 30 minutes at 37° C.
T1 construct: expressed in transfected cells; host or cells: Flp-In-293 (HEK293-derived) cells carrying GLP1R
Description: 1. Cell Line and Reagent Preparation
• 1) Cell line: Flp-In-293-GLP1R • 2) Medium: DMEM+10% FBS+1×Penicillin-Streptomycin+200 μg/mL HB • 3) Test buffer: 1×HBSS+20 mM HEPES+0.1% BSA+500 μM IBMX 2. Agonist Test • a) Flpin-293-GLP1R cells were incubated in a 384-well assay plate (6007680-50, PB) using a complete medium with 2,000 cells per well. • b) Prepared a 4× […] working solution with assay buffer. • c) Added 5 μL of 4× Compound Working Solution to the cell plate and incubated at 37° C. for 30 minutes. • d) Diluted the Eu-cAMP tracer (1/50) with lysis buffer and added 10 μl/well to the assay plate. • e) Diluted Ulight-anti-cAMP (1/150) with lysis buffer and added 10 μl/well to the assay plate. • f) The assay plate was incubated at constant temperature for 1 hour. • g) Read the plate on Envision 2105 plate reader at […]. 3.

[2] = Single-dose oral administration pharmacokinetic study in SD rats; format: in vivo; conditions: Sprague-Dawley, rat, whole blood, 5 mg/kg; for AUC(0-t): read-out: AUC0-48h
Description: 2. Single-Dose Oral Administration Pharmacokinetic (PK) Studies in Sprague-Dawley (SD) Rats
Pharmacokinetic (PK) studies after a single-dose oral administration for compounds. Protocol: Animals: Sprague-Dawley (SD) rats; Solvent: Solutol: PEG400: Tween80: Saline=10:40:2:48 (v/v/v/v); Dose: 5 mg/kg; Dosing concentration: 0.5 mg/mL in the solvent; Dosing volume: 10 mL/kg; Blood sampling time points: pre-dose, 0.25 h, 0.5 h, 1 h, 2 h, 3 h, 4 h, 8 h, 12 h, 18, 24 h, 32 h, 40 h, 48 h. Sample Collection: At each time point, approximately 0.15 mL of blood was drawn from the jugular vein sinus, and the collected whole blood was placed in an anticoagulant tube containing EDTA-K2. After collecting blood samples, they were processed with protein precipitation and then analyzed by LC-MS/MS.

[3] = Single-dose subcutaneous injection pharmacokinetic study in SD rats; format: in vivo; conditions: Sprague-Dawley, rat, blood, sc, male SD rats, 30 mg/kg, vehicle 80% MCT + 20% benzyl alcohol, read-out: AUC0-696h
Description: Pharmacokinetic Studies in Sprague-Dawley (SD) Rats
1. Single-Dose Subcutaneous Injection Pharmacokinetic Studies Sprague-Dawley (SD) Rats
Pharmacokinetic (PK) studies after a single-dose subcutaneous injection for compounds: 1, 13, 18, 19, 20, 21 and orforglipron. Protocol: Animals: Male Sprague-Dawley (SD) rats; Vehicle: 80% MCT (Medium-Chain Triglycerides)+20% benzyl alcohol; Dose: 30 mg/kg in the vehicle; Dosing concentration: 30 mg/mL; Dosing volume: 1 mL/kg; Administration site: Subcutaneous injection at the back of the animal. Blood sampling time points: pre-dose, 1 h, 2 h, 8 h, 24 h, 48 h, 72 h, 96 h, 120 h, 144 h, 216 h, 312 h, 480 h, 696 h. Blood samples were collected, and the blood samples were analyzed by LC-MS/MS.

T1 sequence (P43220 24-463): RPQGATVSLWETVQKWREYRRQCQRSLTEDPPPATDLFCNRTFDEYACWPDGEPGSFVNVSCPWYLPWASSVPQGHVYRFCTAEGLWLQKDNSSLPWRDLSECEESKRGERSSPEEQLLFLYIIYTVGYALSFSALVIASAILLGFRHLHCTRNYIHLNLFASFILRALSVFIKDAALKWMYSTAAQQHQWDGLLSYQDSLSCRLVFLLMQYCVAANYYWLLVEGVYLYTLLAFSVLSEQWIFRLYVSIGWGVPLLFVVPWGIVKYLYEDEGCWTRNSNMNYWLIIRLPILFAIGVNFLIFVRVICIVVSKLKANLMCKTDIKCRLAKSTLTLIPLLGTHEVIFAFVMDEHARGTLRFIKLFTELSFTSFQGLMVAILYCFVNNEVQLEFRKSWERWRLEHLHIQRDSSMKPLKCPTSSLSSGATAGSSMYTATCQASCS

Cc1cc(-n2nc3c(c2-n2ccn(-c4ccc5c(cnn5C5CC5)c4F)c2=O)[C@H](C)N(C(=O)c2cc4nc(C5CCOCC5)ccc4n2[C@@]2(c4noc(=O)[nH]4)C[C@@H]2C)CC3)cc(C)c1F (single isomer, unassigned) [Compound 19]
EC50 [1]: 0.012 nM | Cmax [2]: 4460 ng/mL | AUC(0-t) [2]: 60000 ng·h/mL | AUC(0-t) [3]: 234000 ng·h/mL

Cc1cc(-n2nc3c(c2-n2ccn(-c4ccc5c(cnn5C5CC5)c4F)c2=O)[C@H](C)N(C(=O)c2cc4cc([C@H]5CCOC(C)(C)C5)ccc4n2[C@@]2(c4noc(=O)[nH]4)C[C@@H]2C)CC3)cc(C)c1F [Compound 1]
EC50 [1]: 0.094 nM | AUC(0-t) [3]: 60300 ng·h/mL

Cc1cc(-n2nc3c(c2-n2ccn(-c4ccc5c(cnn5CC5CC5)c4F)c2=O)[C@H](C)N(C(=O)c2cc4cc(C5CCOC(C)(C)C5)ccc4n2[C@@]2(c4noc(=O)[nH]4)C[C@@H]2C)CC3)cc(C)c1F (stereo partly drawn) [Compound 13]
EC50 [1]: 0.228 nM | AUC(0-t) [3]: 23400 ng·h/mL

Cc1cc(-n2nc3c(c2-n2ccn(-c4ccc5c(cnn5CC5CC5)c4F)c2=O)[C@H](C)N(C(=O)c2cc4cc([C@@H]5CCOC(C)(C)C5)ccc4n2[C@@]2(c4noc(=O)[nH]4)C[C@@H]2C)CC3)cc(C)c1F [Compound 18]
EC50 [1]: 0.265 nM | AUC(0-t) [3]: 51200 ng·h/mL

Cc1cc(-n2nc3c(c2-n2ccn(-c4ccc5c(cnn5C5CCC5)c4F)c2=O)[C@H](C)N(C(=O)c2cc4cc(C5CCOCC5)ccc4n2[C@@]2(c4noc(=O)[nH]4)C[C@@H]2C)CC3)cc(C)c1F [Compound 20]
EC50 [1]: 0.018 nM | Cmax [2]: 1900 ng/mL | AUC(0-t) [2]: 17000 ng·h/mL | AUC(0-t) [3]: 77700 ng·h/mL

Cc1cc(-n2nc3c(c2-n2ccn(-c4ccc5c(cnn5CC5CC5)c4F)c2=O)[C@H](C)N(C(=O)c2cc4cc(C5CCOCC5)ccc4n2[C@@]2(c4noc(=O)[nH]4)C[C@@H]2C)CC3)cc(C)c1F [Compound 21]
EC50 [1]: 0.044 nM | AUC(0-t) [3]: 61500 ng·h/mL

Cc1cc(-n2nc3c(c2-n2ccn(-c4ccc(NS(C)(=O)=O)cc4)c2=O)C2CCC(C3)N2C(=O)c2cc3nc(C4CCOCC4)ccc3n2[C@@]2(c3noc(=O)[nH]3)C[C@@H]2C)cc(C)c1F (stereo partly drawn) [Compound 24]
EC50 [1]: 0.868 nM

Cc1cc(-n2nc3c(c2-n2ccn(-c4ccc5c(c4F)COB5O)c2=O)[C@H](C)N(C(=O)c2cc4cc(C5CCOC(C)(C)C5)ccc4n2[C@@]2(c4noc(=O)[nH]4)C[C@@H]2C)CC3)cc(C)c1F (stereo partly drawn) [Compound 29]
EC50 [1]: 0.063 nM

Cc1cc(-n2nc3c(c2-n2ccn(-c4ccc5c(c4F)CCS(=O)(=O)N5C)c2=O)[C@H](C)N(C(=O)c2cc4cc(C5CCOCC5)ccc4n2[C@@]2(c4noc(=O)[nH]4)C[C@@H]2C)CC3)cc(C)c1F [Compound 35]
EC50 [1]: 0.025 nM

Cc1cc(-n2nc3c(c2-n2ccn(-c4ccc5c(c4F)CCS(=O)(=O)N5)c2=O)[C@H](C)N(C(=O)c2cc4cc(C5CCOCC5)ccc4n2[C@@]2(c4noc(=O)[nH]4)C[C@@H]2C)CC3)cc(C)c1F [Compound 36]
EC50 [1]: 0.05 nM

Cc1cc(-n2nc3c(c2-n2ccn(-c4ccc5c(c4F)CS(=O)(=O)N5)c2=O)[C@H](C)N(C(=O)c2cc4cc(C5CCOCC5)ccc4n2[C@@]2(c4noc(=O)[nH]4)C[C@@H]2C)CC3)cc(C)c1F [Compound 37]
EC50 [1]: 0.06 nM

Cc1cc(-n2nc3c(c2-n2ccn(-c4ccc(CP(C)(C)=O)cc4)c2=O)[C@H](C)N(C(=O)c2cc4cc(C5CCOCC5)ccc4n2[C@@]2(c4noc(=O)[nH]4)C[C@@H]2C)CC3)cc(C)c1F [Compound 50]
EC50 [1]: 0.028 nM

Cc1cc(-n2nc3c(c2-n2ccn(-c4ccc5c(c4)NCCS5(=O)=O)c2=O)[C@H](C)N(C(=O)c2cc4cc(C5CCOCC5)ccc4n2[C@@]2(c4noc(=O)[nH]4)C[C@@H]2C)CC3)cc(C)c1F [Compound 55]
EC50 [1]: 0.15 nM

Cc1cc(-n2nc3c(c2-n2ccn(-c4ccc5c(cnn5C5CC5)c4F)c2=O)[C@H](C)N(C(=O)c2cc4nc(C5CCOCC5)ccc4n2[C@@]2(c4noc(=O)[nH]4)C[C@@H]2C)CC3)cc(C)c1F [Compound 65]
EC50 [1]: 0.092 nM | Cmax [2]: 11000 ng/mL | AUC(0-t) [2]: 71800 ng·h/mL

Cc1cc(-n2nc3c(c2-n2ccn(-c4ccc5c(cnn5C5CC5)c4F)c2=O)[C@H](C)N(C(=O)c2cc4cc(C5CCOCC5)ncc4n2[C@@]2(c4noc(=O)[nH]4)C[C@@H]2C)CC3)cc(C)c1F [Compound 66]
EC50 [1]: 0.014 nM

Cc1cc(-n2nc3c(c2-n2ccn(-c4ccc5c(cnn5C5CC5)c4F)c2=O)[C@H](C)N(C(=O)c2cc4cc(C5CCOCC5)cnc4n2[C@@]2(c4noc(=O)[nH]4)C[C@@H]2C)CC3)cc(C)c1F [Compound 70]
EC50 [1]: 0.064 nM

Cc1cc(-n2nc3c(c2-n2ccn(-c4ccc5c(c4)CS(=O)(=O)N5C)c2=O)[C@H](C)N(C(=O)c2cc4cc(C5CCOCC5)ccc4n2[C@@]2(c4noc(=O)[nH]4)C[C@@H]2C)CC3)cc(C)c1F [Compound 76]
EC50 [1]: 0.019 nM

Cc1cc(-n2nc3c(c2-n2ccn(-c4ccc5c(c4)oc(=O)n5C)c2=O)[C@H](C)N(C(=O)c2cc4cc(C5CCOCC5)ccc4n2[C@@]2(c4noc(=O)[nH]4)C[C@@H]2C)CC3)cc(C)c1F [Compound 77]
EC50 [1]: 0.022 nM

Cc1cc(-n2nc3c(c2-n2ccn(-c4ccc5c(c4)CCC(=O)N5C)c2=O)[C@H](C)N(C(=O)c2cc4cc(C5CCOCC5)ccc4n2[C@@]2(c4noc(=O)[nH]4)C[C@@H]2C)CC3)cc(C)c1F [Compound 78]
EC50 [1]: 0.012 nM

Cc1cc(-n2nc3c(c2-n2ccn(-c4ccc5c(c4F)COB5O)c2=O)[C@H](C)N(C(=O)c2cc4cc(C5CCOCC5)ccc4n2[C@@]2(c4noc(=O)[nH]4)C[C@@H]2C)CC3)cc(C)c1F [Compound 79]
EC50 [1]: 0.171 nM

CCP(=O)(CC)Cc1ccc(-n2ccn(-c3c4c(nn3-c3cc(C)c(F)c(C)c3)CCN(C(=O)c3cc5cc(C6CCOCC6)ccc5n3[C@@]3(c5noc(=O)[nH]5)C[C@@H]3C)[C@H]4C)c2=O)cc1 [Compound 80]
EC50 [1]: 0.038 nM

Cc1cc(-n2nc3c(c2-n2ccn(-c4ccc(CP(=O)(C5CC5)C5CC5)cc4)c2=O)[C@H](C)N(C(=O)c2cc4cc(C5CCOCC5)ccc4n2[C@@]2(c4noc(=O)[nH]4)C[C@@H]2C)CC3)cc(C)c1F [Compound 81]
EC50 [1]: 0.042 nM

Cc1cc(-n2nc3c(c2-n2ccn(-c4ccc(CP5(=O)CCCC5)cc4)c2=O)[C@H](C)N(C(=O)c2cc4cc(C5CCOCC5)ccc4n2[C@@]2(c4noc(=O)[nH]4)C[C@@H]2C)CC3)cc(C)c1F [Compound 82]
EC50 [1]: 0.011 nM

CCOP(=O)(Cc1ccc(-n2ccn(-c3c4c(nn3-c3cc(C)c(F)c(C)c3)CCN(C(=O)c3cc5cc(C6CCOCC6)ccc5n3[C@@]3(c5noc(=O)[nH]5)C[C@@H]3C)[C@H]4C)c2=O)cc1)OCC [Compound 84]
EC50 [1]: 0.08 nM

Cc1cc(-n2nc3c(c2-n2ccn(-c4ccc5c(cnn5C)c4F)c2=O)[C@H](C)N(C(=O)c2cc4cc([C@H]5CCOC(C)(C)C5)ccc4n2[C@@]2(c4noc(=O)[nH]4)C[C@@H]2C)CC3)cc(C)c1F [Orforglipron, orforglipron, reference compound]
Cmax [2]: 799 ng/mL | AUC(0-t) [2]: 7220 ng·h/mL | AUC(0-t) [3]: 5390 ng·h/mL
